According to PubChem BioAssay AID2060912 (Molecular Pharmacology Branch, DTP, NCI, 2025):

Tested on: HUVEC/MSC spheroids viability
Experiment: Human HUVEC/MSC cell line growth inhibition [KRAS2];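 for viability, T/C: percent of DMSO vehicle control luminescence so 100% = untreated viability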
Details: for IC50: curve of first compound; for viability, T/C: stronger effect = lower value
Source text: Multicellular complex tumor spheroid response to RAS pathway inhibitors in combination with a targeted agents in patient-derived cell lines with oncogenic KRAS variants from multiple cancer types
A high-throughput screen of multi-cell type tumor spheroids was designed to identify active combinations of targeted small molecules and KRAS pathway inhibitors. Complex spheroids include a stromal component modeled by human endothelial cells (HUVEC) and fibroblasts modeled by human mesenchymal stem cells (MSCs). The concentration ranges selected for each drug and investigational agent were based upon clinically achievable concentrations if the clinical Cmax of the agent was known. * [This particular assayID is a followup dataset requested by reviewers of the manuscript. It is a test of the HUVEC and MSC without the tumor cells, and was conducted using different drug plates and a different plate layout.]
Compounds. The drugs and investigational agents: BI-3406 (NSC825286), BAY-293 (NSC824723), batoprotafib (TNO155; NSC825523), sotorasib (AMG 510; NSC818433), MRTX1257 (NSC819558), elimusertib (BAY 1895344; NSC800525), molibresib (GSK525762; NSC774829), temuterkib (LY3214996; NSC803410), venetoclax (NSC766270), alisertib (NSC759677), olaparib (NSC753686), talazoparib (NSC767125), erdafitinib (NSC781556), ipatasertib (NSC767898), cabozantinib (NSC761068), nintedanib (NSC756659), abemaciclib (NSC768073), docetaxel (NSC628503), trametinib (NSC758246), and sapanisertib (NSC764658) were obtained from the National Cancer Institute (NCI) Developmental Therapeutics Program Chemical Repository. The FDA-approved anticancer drug set is available from the Developmental Therapeutics Program. […] The stock solutions were prepared in dimethyl sulfoxide (DMSO, Sigma-Aldrich, St. Louis, MO, cat. D2650) at 800-fold the tested concentration and stored at -70 degrees C prior to their use. All drugs and investigational agents were tested over a range starting from a high concentration at or near the clinical Cmax and decreasing in half-log increments. If the clinical Cmax for an agent had not been determined, the highest concentration tested was 10 microM.
Cell Culture. All cells were maintained in an incubator at 37 degrees C and 5% CO2 with 95% humidity. The PDC lines were cultured according to standard operating procedures established by the NCI PDMR (https://pdmr.cancer.gov/sops/default.htm). Briefly, all PDCs were thawed and cultured in Matrigel-coated flasks prepared with a working solution of 1X Ham's F-12 nutrient mix, without supplementation (Invitrogen, Waltham, MA, cat. 11765054), 100 U/mL penicillin-streptomycin (Invitrogen, cat. 15140122), and 2.5% Matrigel (Corning Inc., Corning, NY, cat. 354248) for the first three passages. All PDCs were cultured in complete DMEM/F-12 media containing advanced DMEM/F-12 (Invitrogen, cat. 12634028), 4.9% defined fetal bovine serum, heat inactivated (HyClone Laboratories Inc., Logan, UT, cat. SH30070.03HI), 389 ng/mL hydrocortisone (Sigma-Aldrich, cat. H4001), 9.7 ng/mL human EGF recombinant protein (Invitrogen, cat. PHG0313), 23.4 microg/mL adenine (Sigma-Aldrich, cat. A2786), 97.3 U/mL penicillin-streptomycin (Invitrogen, cat. 15140122), 1.9 mM L-glutamine (Invitrogen, cat. 25030081), and 9.7 microM Y-27632 dihydrochloride (Tocris Bioscience, Bristol, United Kingdom, cat. 1254). The PDCs were cultured in complete DMEM/F12 media without 9.7 microM Y-27632 dihydrochloride for at least two passages prior to the screen. The established cell line HOP-62 was cultured in RPMI 1640 medium, HEPES (Invitrogen, cat. 22400105) with 10% defined fetal bovine serum (HyClone Laboratories Inc., cat. SH30070.03) and 2 mM L-glutamine (Invitrogen, cat. 25030081). The pooled donor HUVEC were cultured in endothelial cell growth medium 2 (PromoCell, Heidelberg, Germany, cat. C-22011) and the hMSC were cultured in mesenchymal stem cell growth medium 2 (PromoCell, cat. C-28009). […]

## CC1COCCN1c1cc(-c2ccnn2C)c2ccnc(-c3ccn[nH]3)c2n1 (centres undefined) + C=CC(=O)N1CCN(c2nc(=O)n(-c3c(C)ccnc3C(C)C)c3nc(-c4c(O)cccc4F)c(F)cc23)C(C)C1
Second compound 0.0316 µM
  IC50: 2.52 µM
Second compound 0.1 µM
  IC50: > 3 µM
Second compound 0.316 µM
  IC50: 2.75 µM
Second compound 1 µM
  IC50: > 3 µM
Second compound 3.16 µM
  IC50: > 3 µM
Second compound 10 µM
  IC50: > 3 µM
Second compound 0.0316 µM, first compound 0.00949 µM
  viability, T/C: 82.3%
Second compound 0.0316 µM, first compound 0.03 µM
  viability, T/C: 97.5%
Second compound 0.0316 µM, first compound 0.0949 µM
  viability, T/C: 75%
Second compound 0.0316 µM, first compound 0.3 µM
  viability, T/C: 73.2%
Second compound 0.0316 µM, first compound 0.949 µM
  viability, T/C: 64.6%
Second compound 0.0316 µM, first compound 3 µM
  viability, T/C: 47.4%
Second compound 0.1 µM, first compound 0.00949 µM
  viability, T/C: 113%
Second compound 0.1 µM, first compound 0.03 µM
  viability, T/C: 83.7%
Second compound 0.1 µM, first compound 0.0949 µM
  viability, T/C: 96.6%
Second compound 0.1 µM, first compound 0.3 µM
  viability, T/C: 83.2%
Second compound 0.1 µM, first compound 0.949 µM
  viability, T/C: 50.7%
Second compound 0.1 µM, first compound 3 µM
  viability, T/C: 51.8%
Second compound 0.316 µM, first compound 0.00949 µM
  viability, T/C: 114%
Second compound 0.316 µM, first compound 0.03 µM
  viability, T/C: 105%
Second compound 0.316 µM, first compound 0.0949 µM
  viability, T/C: 94.2%
Second compound 0.316 µM, first compound 0.3 µM
  viability, T/C: 75.5%
Second compound 0.316 µM, first compound 0.949 µM
  viability, T/C: 63.3%
Second compound 0.316 µM, first compound 3 µM
  viability, T/C: 48.6%
Second compound 1 µM, first compound 0.00949 µM
  viability, T/C: 108%
Second compound 1 µM, first compound 0.03 µM
  viability, T/C: 119%
Second compound 1 µM, first compound 0.0949 µM
  viability, T/C: 96.2%
Second compound 1 µM, first compound 0.3 µM
  viability, T/C: 76.3%
Second compound 1 µM, first compound 0.949 µM
  viability, T/C: 76%
Second compound 1 µM, first compound 3 µM
  viability, T/C: 54.6%
Second compound 3.16 µM, first compound 0.00949 µM
  viability, T/C: 103%
Second compound 3.16 µM, first compound 0.03 µM
  viability, T/C: 117%
Second compound 3.16 µM, first compound 0.0949 µM
  viability, T/C: 101%
Second compound 3.16 µM, first compound 0.3 µM
  viability, T/C: 88.5%
Second compound 3.16 µM, first compound 0.949 µM
  viability, T/C: 73.2%
Second compound 3.16 µM, first compound 3 µM
  viability, T/C: 74.8%
Second compound 10 µM, first compound 0.00949 µM
  viability, T/C: 121%
Second compound 10 µM, first compound 0.03 µM
  viability, T/C: 123%
Second compound 10 µM, first compound 0.0949 µM
  viability, T/C: 115%
Second compound 10 µM, first compound 0.3 µM
  viability, T/C: 102%
Second compound 10 µM, first compound 0.949 µM
  viability, T/C: 72%
Second compound 10 µM, first compound 3 µM
  viability, T/C: 77.1%

## CCNC(=O)CC1N=C(c2ccc(Cl)cc2)c2cc(OC)ccc2-n2c(C)nnc21 (centres undefined) + C=CC(=O)N1CCN(c2nc(=O)n(-c3c(C)ccnc3C(C)C)c3nc(-c4c(O)cccc4F)c(F)cc23)C(C)C1
Second compound 0.0316 µM
  IC50: > 10 µM
Second compound 0.1 µM
  IC50: > 10 µM
Second compound 0.316 µM
  IC50: > 10 µM
Second compound 1 µM
  IC50: > 10 µM
Second compound 3.16 µM
  IC50: > 10 µM
Second compound 10 µM
  IC50: > 10 µM
Second compound 0.0316 µM, first compound 0.0316 µM
  viability, T/C: 94.8%
Second compound 0.0316 µM, first compound 0.1 µM
  viability, T/C: 96.7%
Second compound 0.0316 µM, first compound 0.316 µM
  viability, T/C: 129%
Second compound 0.0316 µM, first compound 1 µM
  viability, T/C: 140%
Second compound 0.0316 µM, first compound 3.16 µM
  viability, T/C: 120%
Second compound 0.0316 µM, first compound 10 µM
  viability, T/C: 121%
Second compound 0.1 µM, first compound 0.0316 µM
  viability, T/C: 104%
Second compound 0.1 µM, first compound 0.1 µM
  viability, T/C: 86.3%
Second compound 0.1 µM, first compound 0.316 µM
  viability, T/C: 110%
Second compound 0.1 µM, first compound 1 µM
  viability, T/C: 138%
Second compound 0.1 µM, first compound 3.16 µM
  viability, T/C: 162%
Second compound 0.1 µM, first compound 10 µM
  viability, T/C: 151%
Second compound 0.316 µM, first compound 0.0316 µM
  viability, T/C: 111%
Second compound 0.316 µM, first compound 0.1 µM
  viability, T/C: 109%
Second compound 0.316 µM, first compound 0.316 µM
  viability, T/C: 116%
Second compound 0.316 µM, first compound 1 µM
  viability, T/C: 143%
Second compound 0.316 µM, first compound 3.16 µM
  viability, T/C: 131%
Second compound 0.316 µM, first compound 10 µM
  viability, T/C: 187%
Second compound 1 µM, first compound 0.0316 µM
  viability, T/C: 114%
Second compound 1 µM, first compound 0.1 µM
  viability, T/C: 105%
Second compound 1 µM, first compound 0.316 µM
  viability, T/C: 140%
Second compound 1 µM, first compound 1 µM
  viability, T/C: 163%
Second compound 1 µM, first compound 3.16 µM
  viability, T/C: 179%
Second compound 1 µM, first compound 10 µM
  viability, T/C: 174%
Second compound 3.16 µM, first compound 0.0316 µM
  viability, T/C: 116%
Second compound 3.16 µM, first compound 0.1 µM
  viability, T/C: 146%
Second compound 3.16 µM, first compound 0.316 µM
  viability, T/C: 150%
Second compound 3.16 µM, first compound 1 µM
  viability, T/C: 208%
Second compound 3.16 µM, first compound 3.16 µM
  viability, T/C: 206%
Second compound 3.16 µM, first compound 10 µM
  viability, T/C: 207%
Second compound 10 µM, first compound 0.0316 µM
  viability, T/C: 125%
Second compound 10 µM, first compound 0.1 µM
  viability, T/C: 127%
Second compound 10 µM, first compound 0.316 µM
  viability, T/C: 176%
Second compound 10 µM, first compound 1 µM
  viability, T/C: 189%
Second compound 10 µM, first compound 3.16 µM
  viability, T/C: 179%
Second compound 10 µM, first compound 10 µM
  viability, T/C: 197%
